The subject of series [1] is PGD2 amount in bronchoalveolar lavage fluid. Nature of the series: Inhibitory activity for prostaglandin D2 production into bronchoalveolar lavage fluid in rats (Experiment 2). Conditions: 10 mg/kg orally two hours before antigen inhalation; lavage fluid one hour after ovalbumin inhalation; sensitized rats. It is filed as in vivo, Brawn Norway rats. The procedure:
A physiological saline solution containing 1 mg of ovalbumin and 4 mg of alum was subcutaneously injected into the backs of 7-week-old male Brawn Norway rats in an amount of 1 mL/body, and 0.06 mg of killed pertussis bacteria were intraperitoneally injected into each rat to perform active sensitization. Fourteen days after sensitization, the rats inhaled 2% ovalbumin for 10 minutes. One hour after inhalation, bronchoalveolar lavage fluid was collected. The amount of PGD2 in the bronchoalveolar lavage fluid was determined using an EIA kit. Two hours before antigen inhalation, a test compound (10 mg/kg) was orally administered.

Series [2] addresses human hematopoietic synthase (Homo sapiens, UniProt O60760). In words: Hematopoietic synthase inhibitory activity (Experiment 1). The format is biochemical. Conditions: [14C] prostaglandin H2 10 μM, preincubated at 25° C. for 5 minutes, 1 minute reaction; read-out: Concentration of Pharmaceutical Compound Required to Inhibit 50% of Hematopoietic Synthase. The protocol: Experiment 1 was carried out according to the method of Urade, Y. et al. (J. Biol. Chem. 262, 3820-3825, (1987)). More specifically, the reaction mixture (49 μL); 100 mM Tris-HCl (pH 8.0), 1 mM reduced glutathione, 0.1 mg/mL γ-globulin, and human hematopoietic synthase (quantum sufficient), and a test compound (final concentration: 0.01-100 μM) were preincubated at 25° C. for 5 minutes. In place of the test compound, a DMSO solution (final concentration: 1%) was used in the solvent control group (Control Group). Subsequently, 1 μL of [^14C] prostaglandin H2 (final concentration: 10 μM) was added to start the reaction. One minute after the start of the reaction, 250 μL of a reaction stopper solution (diethylether/methanol/1M citric acid (30/4/1) cooled to −20° C. was added to stop the reaction.
Thereafter, 50 μL of the upper layer portion (organic solvent phase) was applied to a TLC plate and developed at −20° C. for 45 minutes (developer: diethylether/methanol/acetic acid (capacity ratio=90/2/1)). After drying the plate, the plate was exposed to an imaging plate for 1 to 24 hours, and the radioactivity corresponding to prostaglandin D2 was analyzed using an image analyzer (product of FUJIFILM Corporation). The area (%) occupied by the prostaglandin D2 band per lane was calculated, and the concentration of the test compound required to inhibit 50% of the hematopoietic synthase (IC50 value) was calculated by comparison with the Control group in each experiment.

In series [3] the test system is antigen-induced nasal congestion. Nature of the series: Ameliorating activity for antigen-induced nasal congestion in guinea pig (Experiment 3). It is filed as in vivo, Std:Hartley guinea pigs. Conditions: for AUC3-7 hr (nRaw increase %): 3 to 7 hours after induction. The protocol: A physiological saline solution containing 1 mg/mL of ovalbumin was subcutaneously injected into the backs of 5-week-old male Std:Hartley guinea pigs in an amount of 1 mL/body for active sensitization (primary sensitization). One week and two weeks after primary sensitization, 20 μL each of a physiological saline solution containing 10 mg/mL of ovalbumin was instilled into the nasal cavities using a micropipette (sensitization by nasal administration). Three weeks after primary sensitization, 10 μL each of a physiological saline solution containing 20 mg/mL of ovalbumin was instilled into the nasal cavities using a micropipette to induce a rhinitis reaction.
Before, and 10 minutes and 2, 3, 4, 5, 6 and 7 hours after nasal instillation of ovalbumin, the nasal airway resistance per 100 breaths was determined using a comprehensive respiratory function analysis system (“Pulmos-I”, a product of M.I.P.S. Co., Ltd.), and the average at each measurement time was calculated and expressed as nRaw. The increase % of nRaw was calculated according to the following formula. Increase(%)of nRaw at each measurement time=(nRaw at each measurement time−nRaw before induction)÷nRaw before induction×100
Nasal congestion was evaluated by measuring the area under the curve of nRaw increase % during the period of 3 to 7 hours after induction (AUC3-7 hr). “I3-7 hr” refers to the increase of nRaw during the period of 3 to 7 hours after induction. AUC3-7hr=½(I3hr+2×I4hr+2×I5hr+2×I6hr+I7hr)
To confirm the effects on nasal congestion by inhibition of PGD2 production, Compound 15 was selected as a representative compound and orally administered once a day for 15 consecutive days from the day of nasal sensitization performed 1 week after primary sensitization to the day of induction performed 3 weeks after primary sensitization. On the nasal sensitization days (1 week and 2 weeks after primary sensitization) and the induction day, compound 15 was orally administered 1 hour before intranasal instillation of ovalbumin.

The values below come from patent US7951956B2, “Benzoimidazole compound capable of inhibiting prostaglandin D synthetase” (Taiho Pharmaceuticals Co., Ltd., priority 2005, dated 2011).

What is called melting point is the temperature, or range, at which the solid turns liquid.

Sequence of human hematopoietic synthase (O60760 whole entry): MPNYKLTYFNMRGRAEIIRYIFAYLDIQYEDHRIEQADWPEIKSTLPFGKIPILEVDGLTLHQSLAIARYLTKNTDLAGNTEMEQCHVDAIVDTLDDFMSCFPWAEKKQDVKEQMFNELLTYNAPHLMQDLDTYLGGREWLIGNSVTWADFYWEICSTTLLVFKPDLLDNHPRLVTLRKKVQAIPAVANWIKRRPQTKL

Regarding `Cc1oc(C(=O)N2CCCC2)c(C)c1-c1nc2cc(C(=O)c3ccccc3)ccc2[nH]1` [Compound 3, (4-(5-Benzoylbenzimidazol-2-yl)-3,5-dimethyl-2-furanylcarbonyl)pyrrolidine], in series [1], the “Inhibition (%) of the PGD2 Amount in Bronchoalveolar Lavage Fluid” value (“Inhibition (%) of the PGD2 Amount” below) is listed as 36%. In addition, in series [2], the IC50 amounted to 178 nM.

As to `Cc1[nH]c(C#N)c(C)c1-c1nc2cc(C(=O)c3ccccc3)ccc2[nH]1` [Compound 13, 2-(2-Cyano-3,5-dimethyl-pyrrol-4-yl)-5-benzoylbenzimidazole], the melting point lay in the range of 159 to 163 °C. For the same compound, the “Inhibition (%) of the PGD2 Amount” value in series [1] came out at 48%. Moreover, the IC50 in series [2] came to 540 nM.

Consider `CON(C)C(=O)c1[nH]c(C)c(-c2nc3cc(C(=O)c4ccccc4)ccc3[nH]2)c1C` [Compound 15, (N-Methoxy-N-methyl)-4-(5-benzoylbenzimidazol-2-yl)-3,5-dimethylpyrrole-2-carboxamide], for which the melting point fell in the range of 127 to 132 °C. Further, the “Inhibition (%) of the PGD2 Amount” value in series [1] is listed as >72%. Further, in series [2], the IC50 was 256 nM. In series [3] (3 mg/kg orally), the “Inhibition (%) of nasal congestion (AUC3-7 hr)” value (shortened to “Inhibition (%) … (AUC3-7 hr)”) is 60.8% and the “AUC3-7 hr (nRaw increase %)” value was 273.9 ± 69.1 % · hr. Further, in series [3] (10 mg/kg orally), the “Inhibition (%) … (AUC3-7 hr)” value turned out to be 76.5% and the “AUC3-7 hr (nRaw increase %)” value was found to be 153.5 ± 27.1 % · hr. Also, in series [3] (30 mg/kg orally), the “Inhibition (%) … (AUC3-7 hr)” value was determined as 92.8% and the “AUC3-7 hr (nRaw increase %)” value was 65.7 ± 28.9 % · hr.

In the case of `Cc1[nH]c(C(=O)N2CCOCC2)c(C)c1-c1nc2cc(C(=O)c3ccccc3)ccc2[nH]1` [Compound 40, ((4-(5-benzoylbenzimidazol-2-yl)-3,5-dimethylpyrrol-2-yl)-carbonyl)morpholine], in series [1], the “Inhibition (%) of the PGD2 Amount” value turned out to be 65%. Besides, the IC50 in series [2] was 592 nM.

Turning to `Cc1[nH]c(C(=O)N2CCC=N2)c(C)c1-c1nc2cc(C(=O)c3ccccc3)ccc2[nH]1` [Compound 42, ((4-(5-Benzoylbenzimidazol-2-yl)-3,5-dimethylpyrrol-2-yl)-carbonyl)pyrazoline], the “Inhibition (%) of the PGD2 Amount” value in series [1] amounted to 88%. In addition, the IC50 in series [2] was determined as 63 nM.

As to `Cc1[nH]c(C(=O)N2CCC(C(=O)NCCN(C)C)CC2)c(C)c1-c1nc2cc(C(=O)c3ccccc3)ccc2[nH]1` [Compound 46, N-Dimethylaminoethyl-1-((4-(5-benzoylbenzimidazol-2-yl)-3,5-dimethylpyrrol-2-yl)-carbonyl)piperidine-4-carboxamide], the melting point fell in the range of 258 to 260 °C. In addition, the IC50 in series [2] was found to be 758 nM.

For `Cc1cc(C)c(-c2nc3cc(C(=O)c4ccccc4)ccc3[nH]2)[nH]1` [Compound 52, 5-Benzoyl-2-(3,5-dimethylpyrrol-2-yl)-benzimidazole], the melting point was 225 to 229 °C. For the same compound, in series [2], the IC50 was determined as 4800 nM.

In turn, `CCOC(=O)c1c(C)[nH]c(-c2nc3cc(C(=O)c4ccccc4)ccc3[nH]2)c1C` [Compound 53, 5-(5-Benzoylbenzimidazole-2-yl)-2,4-dimethylpyrrole-3-carboxylic acid ethyl ester] came in with a melting point of 185 to 187 °C. The IC50 in series [2] was determined as 3080 nM.

`O=C(c1ccccc1)c1ccc2[nH]c(-c3ccc(C(=O)O)o3)nc2c1` [Compound 57, 5-(5-Benzoylbenzimidazol-2-yl)-furan-2-carboxylic acid] registered a melting point of 170 °C. For the same compound, the IC50 in series [2] turned out to be 4130 nM.

Consider `Cc1[nH]c(C(=O)NCO)c(C)c1-c1nc2cc(C(=O)c3ccccc3)ccc2[nH]1` [Compound 67, (N-Hydroxymethyl)-4-(5-benzoylbenzimidazol-2-yl)-3,5-dimethylpyrrole-2-carboxamide], for which the melting point was in the range of 196 to 210 °C. Also, in series [2], the IC50 worked out at 109 nM.

In turn, `CCOC(=O)c1[nH]c(C)c(-c2nc3cc(Oc4ccccc4)ccc3[nH]2)c1C` [Compound 68, 4-(5-Phenoxybenzimidazole-2-yl)-3,5-dimethylpyrrole-2-carboxylic acid ethyl ester] yielded a melting point of 239 to 242 °C. Moreover, the IC50 in series [2] stood at 210 nM.

`Cc1[nH]c(C(=O)O)c(C)c1-c1nc2cc(Oc3ccccc3)ccc2[nH]1` [Compound 69, 4-(5-Phenoxybenzimidazole-2-yl)-3,5-dimethylpyrrole-2-carboxylic acid]: the melting point was 167 to 172 °C (dec.). The IC50 in series [2] was 491 nM.

For the compound `Cc1[nH]c(C(=O)N2CCCC2)c(C)c1-c1nc2cc(Oc3ccccc3)ccc2[nH]1` [Compound 70, ((4-(5-Phenoxybenzimidazole-2-yl)-3,5-dimethylpyrrol-2-yl)-2-carbonyl)pyrrolidine], the melting point was 251 to 254 °C. Besides, in series [2], the IC50 is 614 nM.

Regarding `O=C(Nc1cccc2c(=O)cc(-c3nnn[nH]3)oc12)c1ccc(OCCCCc2ccccc2)cc1` [Pranlukast, reference compound], in series [3] (30 mg/kg orally), the “Inhibition (%) … (AUC3-7 hr)” value is 81.5% and the “AUC3-7 hr (nRaw increase %)” value is 126.3 ± 41.7^$$ % · hr.

As for `O=C(O)CCn1c2c(c3ccccc31)C[C@H](NS(=O)(=O)c1ccc(F)cc1)CC2` [Ramatroban, reference compound], in series [3] (30 mg/kg orally), the “Inhibition (%) … (AUC3-7 hr)” value amounted to 70.9% and the “AUC3-7 hr (nRaw increase %)” value was 183.4 ± 29.3^$$ % · hr.
